Biological target: T1, SMS2 (Homo sapiens, UniProt Q8NHU3)
T1 construct: CAO, Yu research team, National Protein Scientific Center (Shanghai); supplied by an outside laboratory, not a commercial vendor
T1 sequence (Q8NHU3 1-365): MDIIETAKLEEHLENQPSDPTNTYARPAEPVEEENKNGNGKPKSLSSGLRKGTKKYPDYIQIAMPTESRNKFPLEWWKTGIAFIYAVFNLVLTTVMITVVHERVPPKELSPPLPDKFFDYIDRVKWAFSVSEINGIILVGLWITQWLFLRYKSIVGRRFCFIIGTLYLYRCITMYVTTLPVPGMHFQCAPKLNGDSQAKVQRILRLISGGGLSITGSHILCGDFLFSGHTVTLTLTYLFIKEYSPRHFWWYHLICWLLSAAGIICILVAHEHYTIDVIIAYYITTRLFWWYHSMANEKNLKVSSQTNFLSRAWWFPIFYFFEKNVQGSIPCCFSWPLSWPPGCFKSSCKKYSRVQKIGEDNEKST
Experiment: SMS2 inhibitory activity in vitro, HPLC fluorescence quantitative detection (C6-NBD-ceramide to C6-NBD-SM)
Assay type: biochemical
Settings: SMS2 pure enzyme; for inhibition at 1 µM: 1 µM test compound, read-out: Inhibition rate on SMS2 at C/µM 1; for inhibition at 1 µM / inhibition at 10 µM: 37°C, 30 minutes, average of two measurements; for inhibition at 10 µM: 10 µM test compound, read-out: Inhibition rate on SMS2 at C/µM 10
From the text: • 1. Electro-thermostatic water bath, from Shanghai Yiheng Technology Co., Ltd.); • 2. Vortex Mixer, with model ID of XW-80A, from Shanghai Jingke Industrial Co., Ltd.; • 3. […] High Performance Liquid Chromatography Agilent 1100, equipped with a quaternary pump, vacuum degassing, and FLD fluorescence detector, from Agilent Technologies, Palo Alto, CA, USA; • 5. HPLC column COSMOSIL 5C18-MS-II (4.6mm I.D. X 250mm); • 6. […] The organic solvents used in the present disclosure were purchased from Shanghai National Reagent Company, wherein methanol was pure chromatography; water was ultra-pure water which is filtrated by Milli-Q pump, deionized and ultra-filtrated with 0.22 µm membrane; and other biological consumables were purchased from domestic companies; • 8. Preparation of test compound solutions: each test compound was accurately weighed and dissolved in an appropriate volume of DMSO to prepare a 10 mmol/L stock solution. The stock solution was then diluted with an appropriate volume of DMSO to achieve the desired working concentration; • 9. SMS2 pure enzyme, DDM solution and buffer solution were provided by CAO, Yu research team from National Protein Scientific Center (Shanghai).
79 µl of the diluted enzyme solution were transferred into a 1.5 mL EP tube, 1 µl of inhibitor DMSO solution were added thereto, vortexing for 15 seconds, followed by standing at room temperature for 5 minutes. 20 µl of a mixed solution of DMPC and C6-NBD-ceramide were added, vortexing for 15 seconds, and incubated at 37°C for 30 minutes. 200 µl of anhydrous ethanol were added to quench the reaction, vortexing for 15 seconds. 200 µl of the reaction solution were taken out and stored at 4°C and avoided light for HPLC detection.
The peak area values of A(sm) and A(ceramide) in the HPLC chromatogram corresponding to C6-NBD-SM and C6-NBD-Ceramide in the DMSO group and inhibitor group samples were analyzed and recorded, and the inhibition rate of the test compound was calculated according to the following formula. Inhibition rate = (Peak area values of DMSO group−Peak area values of Inhibitor group)/(Peak area values of DMSO group) × 100% [formula]

inhibition at 1 µM	inhibition at 10 µM	SMILES	other results
52%	–	O=C(Nc1cccnc1)c1sccc1OCc1ccccc1-c1ccccc1 [1-94, 3-[(1,1'-Biphenyl-2-yl)methoxy]-N-(pyridin-3-yl)thiophene-2-carboxamide]	–
–	61%	O=C(Nc1cncs1)c1sccc1OCc1ccccc1 [1-65, 3-benzyloxy-N-(thiazol-5-yl)thiophene-2-carboxamide]	–
72%	–	Cc1ccccc1COc1ccsc1C(=O)Nc1cccnc1 [1-41, 3-(2-methylbenzyloxy)-N-(pyridin-3-yl)thiophene-2-carboxamide]	–
–	22%	O=C(Nc1cccnc1)c1cccnc1OCc1ccccc1 [12-18, 2-benzyloxy-N-(pyridin-3-yl)pyridin-3-carboxamide]	–
-16%	–	O=C(Nc1ccc2c(c1)Cc1ccccc1-2)c1sccc1OCc1ccccc1 [12-7, 3-(benzyloxy)-N-(9H-fluoren-2-yl)thiophene-2-carboxamide]	–
-2%	–	Cc1nc(OCc2ccccc2)c(C(=O)Nc2cccnc2)s1 [12-9, 4-(benzyloxy)-2-methyl-N-(pyridin-3-yl)thiazole-5-carboxamide]	–
–	53%	CC(C)(C)C(=O)Oc1ccc(Cl)c(COc2ccsc2C(=O)Nc2cccnc2)c1 [1-23]	–
91%	–	CCCCCOc1cccc(Cl)c1COc1ccsc1C(=O)Nc1cccnc1 [1-38, 3-(2-(n-pentyloxy)-6-chlorobenzyloxy)-N-(pyridin-3-yl)thiophene-2-carboxamide]	–
78%	–	O=C(Nc1cccnc1)c1sccc1OCc1cc(O)ccc1Cl [1-24, 3-(2-chloro-5-hydroxybenzyloxy)-N-(pyridin-3-yl)thiophene-2-carboxamide]	–
–	17%	O=C(Nc1cccnc1)c1cnccc1OCc1ccccc1 [12-16, 4-benzyloxy-N-(pyridin-3-yl)pyridin-3-carboxamide]	–
80%	–	COc1cccc(Cl)c1COc1ccsc1C(=O)Nc1cccnc1 [1-63, 3-(2-chloro-6-methoxybenzyloxy)-N-(pyridin-3-yl)thiophene-2-carboxamide]	–
–	97%	CCOC(=O)CCCCCOc1ccccc1COc1ccsc1C(=O)Nc1cccnc1 [1-18, 6-(2-[(2-(pyridin-3-ylcarbamoyl)thiophene-3-yl)oxymethyl]phenoxy)ethyl hexanoate]	–
50%	–	O=C(Nc1cccnc1)c1sccc1OCc1c2ccccc2cc2ccccc12 [1-13, 3-(anthracen-9-ylmethoxy)-N-(pyridin-3-yl)thiophene-2-carboxamide]	–
76%	–	Cc1ccc(F)cc1COc1ccsc1C(=O)Nc1cccnc1 [1-88, 3-(5-fluoro-2-methylbenzyloxy)-N-(pyridin-3-yl)thiophene-2-carboxamide]	–
86%	–	O=C(Nc1cccnc1)c1sccc1OCc1csc2ccccc12 [1-66, 3-(benzo[b]thiophen-3-ylmethoxy)-N-(pyridin-3-yl)thiophene-2-carboxamide]	–
–	7%	Cc1ccc(NC(=O)Cc2ccccc2COc2ccsc2C(=O)Nc2cccnc2)nc1 [12-8, 3-(2-(2-((5-methylpyridin-2-yl)amino)-2-oxoethyl)benzyloxy)-N-(pyridin-3-yl) thiophene-2-carboxamide]	–
–	50%	O=C(Nc1cccnc1)c1sccc1OCc1ccc2ccccc2c1 [1-11, 3-(naphthalen-2-ylmethoxy)-N-(pyridin-3-yl)thiophene-2-carboxamide]	–
74%	–	O=C(Nc1cccnc1)c1sccc1OCc1cc(Cl)ccc1Cl [1-89, 3-(2,5-dichlorobenzyloxy)-N-(pyridin-3-yl)thiophene-2-carboxamide]	–
23%	–	Cc1cc(OCc2ccccc2)c(C(=O)Nc2cccnc2)s1 [1-40, 3-benzyloxy-5-methyl-N-(pyridin-3-yl)thiophene-2-carboxamide]	–
–	50%	O=C(Nc1cccc(O)n1)c1sccc1OCc1ccccc1 [1-9, 3-benzyloxy-N-(6-hydroxypyridine-2-yl)thiophene-2-carboxamide]	–

inhibition at 1 µM	inhibition at 10 µM	SMILES	other results
69%	–	Cc1cccc(COc2ccsc2C(=O)Nc2cccnc2)c1 [1-43, 3-(3-methylbenzyloxy)-N-(pyridin-3-yl)thiophene-2-carboxamide]	–
60%	–	O=C(Nc1cccnc1)c1cscc1OCc1ccccc1 [1-100, 4-(benzyloxy)-N-(pyridin-3-yl)thiophene-3-carboxamide]	–
–	4%	O=C(Nc1cccnc1)c1sccc1OCc1ccccc1N1C(=O)c2ccccc2C1=O [12-5, 3-(2-(1,3-dioxoisoindolin-2-yl)benzyloxy)-N-(pyridin-3-yl)thiophene-2-carboxamide]	–
–	60%	CCCCCCOc1cccc(COc2ccsc2C(=O)Nc2cccnc2)c1 [1-79, 3-(3-(hexyloxy)benzyloxy)-N-(pyridin-3-yl)thiophene-2-carboxamide]	–
–	50%	O=C(Nc1cccnc1)c1sc([N+](=O)[O-])cc1OCc1ccccc1 [1-14, 3-benzyloxy-5-nitro-N-(pyridin-3-yl)thiophene-2-carboxamide]	–
74%	–	CCCOc1cccc(Cl)c1COc1ccsc1C(=O)Nc1cccnc1 [1-39, 3-(2-chloro-6-propoxybenzyloxy)-N-(pyridin-3-yl)thiophene-2-carboxamide]	–
95%	–	CCCCCCOc1cc(Cl)ccc1COc1ccsc1C(=O)Nc1cccnc1 [1-71, 3-(4-chloro-2-(hexyloxy)benzyloxy)-N-(pyridin-3-yl)thiophene-2-carboxamide]	–
7%	–	O=C(Nc1ccncc1)c1sccc1OCc1ccccc1 [12-11]	–
73%	–	CCc1ccccc1COc1ccsc1C(=O)Nc1cccnc1 [1-81, 3-(2-ethylbenzyloxy)-N-(pyridin-3-yl)thiophene-2-carboxamide]	–
7%	–	Cc1ccc(NC(=O)c2sccc2OCc2ccccc2)cn1 [12-12]	–
–	59%	O=C(Nc1cccnc1)c1sccc1OCc1ccsc1 [1-78, 3-(thiophen-3-ylmethoxy)-N-(pyridin-3-yl)thiophene-2-carboxamide]	–
98%	–	CCCCCCCOc1ccc(Cl)cc1COc1ccsc1C(=O)Nc1cccnc1 [1-74, 3-(5-chloro-2-(heptyloxy)benzyloxy)-N-(pyridin-3-yl)thiophene-2-carboxamide]	–
95%	–	O=C(Nc1cccnc1)c1sccc1OCc1ccccc1OCCc1ccccc1 [1-70, 3-(2-(phenylethoxy)benzyloxy)-N-(pyridin-3-yl)thiophene-2-carboxamide]	–
63%	–	CCOC(=O)c1ccccc1COc1ccsc1C(=O)Nc1cccnc1 [1-84]	–
–	50%	CCCCCCCCOc1ccsc1C(=O)Nc1cccnc1 [1-96, 3-octyloxy-N-(pyridin-3-yl)thiophene-2-carboxamide]	–
87%	–	O=C(Nc1cccnc1)c1sccc1OCc1ccccc1OC(F)(F)F [1-53, 3-(2-(trifluoromethoxy)benzyloxy)-N-(pyridin-3-yl)thiophene-2-carboxamide]	–
–	50%	Cc1ncccc1NC(=O)c1sccc1OCc1ccccc1 [1-68, 3-benzyloxy-N-(2-methylpyridin-3-yl)thiophene-2-carboxamide]	–
–	50%	O=C(Nc1ccccn1)c1sccc1OCc1ccccc1 [1-61, 3-benzyloxy-N-(pyridin-2-yl)thiophene-2-carboxamide]	–
–	50%	O=C(Nc1ccccc1)c1sccc1OCc1ccccc1 [1-7, 3-benzyloxy-N-phenylthiophen-2-carboxamide]	–
70%	–	COc1cccc(COc2ccsc2C(=O)Nc2cccnc2)c1 [1-58, 3-(3-methoxybenzyloxy)-N-(pyridin-3-yl)thiophene-2-carboxamide]	–

SMILES	inhibition at 1 µM	inhibition at 10 µM	other results
O=C(Nc1cccnc1)c1sccc1OCc1cc(OP(=O)(O)O)ccc1Cl [1-26]	13%	–	–
CCc1ccccc1COc1ccccc1C(=O)Nc1cccnc1 [12-1 (LY93), 2-(2-ethylbenzyloxy)-N-(pyridin-3-yl)benzamide, reference compound]	66%	–	IC50: 285 nM
O=C(Nc1cccnc1)c1sccc1OCc1ccccc1OCCCCCl [1-75, 3-(2-(4-chlorobutoxy)benzyloxy)-N-(pyridin-3-yl)thiophene-2-carboxamide]	97%	–	–
